In one assay the target is PsrA. The assay is described as follows: isothermal titration calorimetry, one-site model. It is filed as binding, Serratia. The following applies: 50 mM PBS pH 7.4, 25°C; 30 μM PsrA titrated with 0.3 mM ligand; effector, no DNA.
For assay [1], the target named is PsrA-His6 (His-tagged PsrA, LysR family transcriptional regulator of Serratia marcescens JNB5-1) (Serratia marcescens JNB5-1). The assay can be described thus: SEC.

With `O=C(O)[C@@H]1CCCN1` [L-proline], binding on PsrA was put at a Kd of 13.6 µM. Regarding “PsrA-His6 (His-tagged PsrA, LysR family transcriptional regulator of Serratia marcescens JNB5-1) (natural protein)”, the stoichiometry N in assay [1] came to 4.

These data come from paper PMC8754645 (Nucleic Acids Research, 2021).
